The source of these data is patent publication US9089539B2 (Indiana University Research and Technology Corporation, priority 2008, dated 2015).

The series can be described thus: Cleavage of dipeptide-extended prodrugs on incubation in PBS (HPLC/MS). The format is physicochemical. The procedure:
Preliminary analyses were performed with these crude peptides to get an approximation of their relative conversion rates in Phosphate Buffered Saline (PBS) buffer (pH, 7.2) using high performance liquid chromatography (HPLC) and MALDI analysis. The crude peptide samples were dissolved in the PBS buffer at a concentration of 1 mg/ml. 1 ml of the resulting solution was stored in a 1.5 ml HPLC vial which was then sealed and incubated at 37° C. Aliquots of 100 μl were drawn out at various time intervals, cooled to room temperature and analyzed by HPLC.
HPLC analyses were performed on a 150 mm×4.6 mm C18 Vydac column. The flow rate was 1 ml/min. […] A linear gradient was employed (40% to 70% B in 15 minutes).
Each N-terminally extended peptide was incubated in PBS buffer at 37° C. for approximately a week. Alternatively, each peptide was heated for 120 min at 100° C. to accelerate the amide bond cleavage. Cleavage of the prodrugs was analyzed by reverse phase HPLC and MS.
To explore the possible formation of 2,5-diketopiperazine (DKP) or 2,5-diketomorpholine (DMP) and the simultaneous generation of HO-F^7,GLP(8-36)-CEX, the prodrug was incubated in PBS buffer at 37° C. for approximately a week. The peptide was also heated at 100° C. to determine the susceptibility to cleavage (Table 4).

Where a SMILES comes first, the peptide text is derived from it. Side-chain parts run from the residue outwards.

Usually half-life stands for the time needed for the level to fall by half in the phase considered. For the compound `CC[C@H](C)[C@H](NC(=O)[C@H](Cc1ccccc1)NC(=O)[C@H](CCC(=O)O)NC(=O)[C@H](CCCCN)NC(=O)[C@H](C)NC(=O)[C@H](C)NC(=O)[C@H](CCC(N)=O)NC(=O)CNC(=O)[C@H](CCC(=O)O)NC(=O)[C@H](CC(C)C)NC(=O)[C@H](Cc1ccc(O)cc1)NC(=O)[C@H](CO)NC(=O)[C@H](CO)NC(=O)[C@@H](NC(=O)[C@H](CC(=O)O)NC(=O)[C@H](CO)NC(=O)[C@@H](NC(=O)[C@H](Cc1ccccc1)NC(=O)[C@H](COC(=O)CNC(=O)CN)NC(=O)CNC(=O)[C@H](CCC(N)=O)NC(=O)[C@H](C)NC(=O)[C@@H](N)Cc1ccccc1)[C@@H](C)O)C(C)C)C(=O)N[C@@H](C)C(=O)N[C@@H](Cc1c[nH]c2ccccc12)C(=O)N[C@@H](CC(C)C)C(=O)N[C@H](C(=O)N[C@@H](CCCCN)C(=O)NCC(=O)NCC(=O)N1CCC[C@H]1C(=O)N[C@@H](CO)C(=O)N[C@@H](CO)C(=O)NCC(=O)N[C@@H](C)C(=O)N1CCC[C@H]1C(=O)N1CCC[C@H]1C(=O)N1CCC[C@H]1C(=O)N[C@@H](CO)C(N)=O)C(C)C` (H-FAQGS([Gly-Gly])FTSDVSSYLEGQAAKEFIAWLVKGGPSSGAPPPS-NH2; N-terminus and C-terminus assumed), where the note is “buffer, PBS pH 7.2, 37° C.”, the half-life was 2.7 h. Further, the “prodrug converted to the active entity” value (in 5 hours, worked out from the half life ([…])) is reported as “approximately 70%”.
